A short description of assay [1]: Antihypertensive properties in in vivo animal testing.
For the next assay, the system named is adenyl cyclase. The assay is described as follows: Inhibition of adenyl cyclase function. Format: biochemical.
For the next assay, the system named is phosphodiesterase. The assay can be described thus: Phosphodiesterase inhibition. The assay is classed as biochemical.
The subject of a further assay is protein kinase. The assay is described as follows: Protein kinase activation relative to cyclic AMP. The assay is classed as biochemical. The following applies: compared with cyclic AMP.
Assay [2] in a line: Anti-inflammatory activity in in vivo animal testing.
The test system of another assay is unanesthetized dogs. The assay can be described thus: Inotropic effect in unanesthetized dogs. Format: in vivo, dog. The following applies: compared with anesthetized dogs. Here is the method: (§1) The measurement dP/dT max was used as the index of change in myocardial contractility (inotropism). Compound 12 was given as an intravenous infusion at the rate of 1 mg/kg per min. in total single doses of 1.0 to 10.0 mg/kg and the values are expresses as percent of control.

Assay [3] concerns renal and mesenteric blood flow. The assay is described as follows: Renal and mesenteric blood flow in anesthetized dogs. The assay is classed as in vivo, dog.
Assay [4] relates to intact anesthetized dog (myocardial contractility). The assay can be described thus: In vivo positive inotropic effect (dP/dT max) in the intact anesthetized dog. The following applies: i.v. infusion 1 mg/kg per min. Here is the method:
as §1
In Vivo Positive Inotropic Effect
Measurement of myocardial contractility (inotropism)
using dP/dT max (% of control) as index of measurement of inotropic

Assay [5] concerns isolated cat papillary muscle. The assay can be described thus: Positive inotropic effect: % change in contractile force in isolated cat papillary muscle. The following applies: for positive inotropic effect: statement in words, isolated cat papillary muscle; for activation at 1 µg/mL / activation at 3.1 µg/mL / activation at 10 µg/mL / activation at 31 µg/mL / activation at 100 µg/mL / activation at 310 µg/mL: Felis catus, read-out: % change in Contractile Force (CF).

Counter-ions that a name gives are not always drawn.

As for `CCN(CC)c1ncnc2c1nc(N(CC)CC)n2[C@@H]1O[C@@H]2COP(=O)(O)O[C@H]2[C@H]1O` [Compound 11, 6,8-Bis-(diethylamino)-9-β-D-ribofuranosylpurine 3',5'-Cyclic Phosphate], the antihypertensive properties result in assay [1] is “displayed antihypertensive properties”. Also, in the assay on adenyl cyclase, the “inhibition of adenyl cyclase function” value is reported as “inhibit adenyl cyclase function”. Besides, the inhibition of phosphodiesterase result with phosphodiesterase is “inhibit phosphodiesterase markedly”.
`CCCCNc1ncnc2c1nc(SC)n2[C@@H]1O[C@@H]2COP(=O)(O)O[C@H]2[C@H]1O` [Compound 30, 6-n-Butylamino-8-(methylthio)-9-β-D-ribofuranosylpurine 3',5'-Cyclic Phosphate]: the protein kinase activation result in the assay on protein kinase is “superior to cyclic AMP”.
With `CC(=O)O[C@@H]1[C@@H]2OP(=O)(O)OC[C@H]2O[C@H]1n1c(Cl)nc2c(Cl)ncnc21` [Compound 2a, 2'-O-Acetyl-6,8-dichloro-9-β-D-ribofuranosylpurine 3',5'-Cyclic Phosphate Sodium Salt], in the assay on protein kinase, the protein kinase activation result is reported as “superior to cyclic AMP”. In addition, in the assay on adenyl cyclase, the “inhibition of adenyl cyclase function” value is reported as “inhibit adenyl cyclase function”.
Turning to `Nc1nc2c(Cl)ncnc2n1[C@@H]1O[C@@H]2COP(=O)(O)O[C@H]2[C@H]1O` [Compound 4, 8-Amino-6-chloro-9-β-D-ribofuranosylpurine 3',5'-Cyclic Phosphate], the protein kinase activation entry in the assay on protein kinase is reported as “superior to cyclic AMP”. Further, in the assay on phosphodiesterase, the inhibition of phosphodiesterase entry is “inhibit phosphodiesterase markedly”.
For the molecule `O=P1(O)OC[C@H]2O[C@@H](n3c(SCc4ccccc4)nc4c(N5CCCCC5)ncnc43)[C@H](O)[C@@H]2O1` [Compound 16, 8-(Benzylthio)-6-piperidino-9-β-D-ribofuranosylpurine 3',5'-Cyclic Phosphate], the anti-inflammatory activity entry in assay [2] is “displayed anti-inflammatory activity”. Further, the “inhibition of adenyl cyclase function” value with adenyl cyclase was “inhibit adenyl cyclase function”. Moreover, the inhibition of phosphodiesterase entry with phosphodiesterase was “inhibit phosphodiesterase markedly”.
With `CCCC(=O)O[C@@H]1[C@@H]2OP(=O)(O)OC[C@H]2O[C@H]1n1c(Cl)nc2c(Cl)ncnc21` [Compound 2b, 2'-O-Butyryl-6,8-dichloro-9-β-D-ribofuranosylpurine 3',5'-Cyclic Phosphate Sodium Salt], in the assay on protein kinase, the protein kinase activation entry is given as “superior to cyclic AMP”. Also, the “inhibition of adenyl cyclase function” value in the assay on adenyl cyclase is “inhibit adenyl cyclase function”.
As to `O=P1(O)OC[C@H]2O[C@@H](n3c(Br)nc4c(NCc5ccccc5)ncnc43)[C@H](O)[C@@H]2O1` [Compound 42, 6-(Benzylamino)-8-bromo-9-β-D-ribofuranosylpurine 3',5'-Cyclic Phosphate], in the assay on phosphodiesterase, the inhibition of phosphodiesterase entry is “inhibit phosphodiesterase markedly”.
On to `CCN(CC)c1ncnc2c1nc(Sc1ccc(Cl)cc1)n2[C@@H]1O[C@@H]2COP(=O)(O)O[C@H]2[C@H]1O` [Compound 35, 8-(p-Chlorophenylthio)-6-(diethylamino)-9-β-D-ribofuranosylpurine 3',5'-Cyclic Phosphate], for which, in the assay on phosphodiesterase, the inhibition of phosphodiesterase entry is “inhibit phosphodiesterase markedly”.
On to `O=P1(O)OC[C@H]2O[C@@H](n3c(Sc4ccc(Cl)cc4)nc4c(N5CCCCC5)ncnc43)[C@H](O)[C@@H]2O1` [Compound 34, 8-(p-Chlorophenylthio)-6-piperidino-9-β-D-ribofuranosylpurine 3',5'-Cyclic Phosphate], for which the inhibition of phosphodiesterase entry in the assay with phosphodiesterase is listed as “inhibit phosphodiesterase markedly”.
As to `CCN(CC)c1ncnc2c1nc(Cl)n2[C@@H]1O[C@@H]2COP(=O)(O)O[C@H]2[C@H]1O` [Compound 9, 8-Chloro-6-(diethylamino)-9-β-D-ribofuranosylpurine 3',5'-Cyclic Phosphate], the protein kinase activation result in the assay with protein kinase is recorded as “superior to cyclic AMP”. Moreover, the inhibition of phosphodiesterase result with phosphodiesterase is “inhibit phosphodiesterase markedly”.
For `CC(=O)O[C@@H]1[C@@H]2OP(=O)(O)OC[C@H]2O[C@H]1n1c(Sc2ccc(Cl)cc2)nc2c(Cl)ncnc21` [Compound 33, 2'-O-Acetyl-6-chloro-8-(p-chlorophenylthio)-9-β-D-ribofuranosylpurine 3',5'-Cyclic Phosphate Sodium Salt], the antihypertensive properties result in assay [1] was “displayed antihypertensive properties”. For the same molecule, the anti-inflammatory activity entry in assay [2] is “displayed anti-inflammatory activity”.
Consider `Nc1nc2c(S)ncnc2n1[C@@H]1O[C@@H]2COP(=O)(O)O[C@H]2[C@H]1O` [Compound 6, 8-Amino-9-β-D-ribofuranosyl-6-thiopurine 3',5'-Cyclic Phosphate], for which the inhibition of phosphodiesterase entry in the assay on phosphodiesterase was “inhibit phosphodiesterase markedly”.
For the molecule “8-(Benzylthio)-6-(diethylamino)-9-β-D-ribofuranosylpurine 3',5'-CyclicPhosphate [Compound 12]”, the “inotropic effect in unanesthetized dogs” value in the assay on unanesthetized dogs was “same inotropic effect”. For the same molecule, the mesenteric blood flow entry in [3] is “increase in renal and mesenteric blood flow”. In addition, in [3], the renal blood flow entry was “increase in renal and mesenteric blood flow”. Moreover, the “dP/dT max (% of control)” value was 120% in [4] (1.0 mg/kg, 1 minute after infusion); 120% in assay [4] (1.0 mg/kg, 3 minutes after infusion); 130% in assay [4] (1.0 mg/kg, 5 minutes after infusion); 110% in [4] (1.0 mg/kg, 15 minutes after infusion); 200% in assay [4] (3.1 mg/kg, 1 minute after infusion); 180% in assay [4] (3.1 mg/kg, 3 minutes after infusion). Besides, the “dP/dT max (% of control)” value in assay [4] (3.1 mg/kg, 5 minutes after infusion) stood at 160%; in [4] (3.1 mg/kg, 15 minutes after infusion), 140%; in assay [4] (3.1 mg/kg, 30 minutes after infusion) it was 105%; in [4] (10.0 mg/kg, 1 minute after infusion), 210%; in assay [4] (10.0 mg/kg, 3 minutes after infusion), 200%; in [4] (10.0 mg/kg, 5 minutes after infusion) it was 180%. Further, the “dP/dT max (% of control)” value in assay [4] (10.0 mg/kg, 15 minutes after infusion) was 140%; in assay [4] (10.0 mg/kg, 30 minutes after infusion), 100%. In addition, the “% change in Contractile Force (CF)” value was found to be 3.8% in assay [5] (1.0 μg/ml); 8.0% in assay [5] (3.1 μg/ml); 12.7% in assay [5] (10.0 μg/ml); 27.0% in assay [5] (31.0 μg/ml); 46.0% in assay [5] (100 μg/ml); 56.0% in [5] (310 μg/ml). The positive inotropic effect result in assay [5] is “exhibit positive inotropic effect”.
On to `CCCCNc1ncnc2c1nc(SCc1ccccc1)n2[C@@H]1O[C@@H]2COP(=O)(O)O[C@H]2[C@H]1O` [Compound 17, 8-(Benzylthio)-6-(n-butylamino)-9-β-D-ribofuranosylpurine 3',5'-CyclicPhosphate], for which the activation at 1 µg/mL in [5] (1.0 μg/ml) came out at 7.5%. Also, in [5] (3.1 μg/ml), the activation at 3.1 µg/mL stood at 10%. The activation at 10 µg/mL in [5] (10.0 μg/ml) was 19.3%. Further, in assay [5] (31.0 μg/ml), the activation at 31 µg/mL turned out to be 24%. Also, the activation at 100 µg/mL in [5] (100 μg/ml) was 30%. The activation at 310 µg/mL in assay [5] (310 μg/ml) is 39%. In assay [5], the positive inotropic effect result is given as “exhibit positive inotropic effect”. Further, the inhibition of phosphodiesterase entry in the assay with phosphodiesterase was “inhibit phosphodiesterase markedly”.
As to `CC(=O)O[C@@H]1[C@@H]2OP(=O)(O)OC[C@H]2O[C@H]1n1c(SCc2ccccc2)nc2c(Cl)ncnc21` [Compound 13, 2'-o-acetyl-8-(benzylthio)-6-chloro-9-β-D-ribofuranosylpurine 3',5'-Cyclic Phosphate Sodium Salt], in the assay with phosphodiesterase, the inhibition of phosphodiesterase result is given as “inhibit phosphodiesterase markedly”.
Regarding `O=P1(O)OC[C@H]2O[C@@H](n3c(SCc4ccccc4)nc4c(N5CCCC5)ncnc43)[C@H](O)[C@@H]2O1` [Compound 18, 8-(Benzylthio)-6-pyrrolidino-9-β-D-ribofuranosylpurine 3',5'-Cyclic Phosphate], in the assay on phosphodiesterase, the inhibition of phosphodiesterase entry is given as “inhibit phosphodiesterase markedly”.
On to `CSc1nc2c(NCc3ccccc3)ncnc2n1[C@@H]1O[C@@H]2COP(=O)(O)O[C@H]2[C@H]1O` [Compound 43, 6-(Benzylamino)-8-(methylthio)-9-β-D-ribofuranosylpurine 3',5'-Cyclic Phosphate], for which the inhibition of phosphodiesterase entry in the assay on phosphodiesterase is on record as “inhibit phosphodiesterase markedly”.
`CCNc1ncnc2c1nc(SCc1ccccc1)n2[C@@H]1O[C@@H]2COP(=O)(O)O[C@H]2[C@H]1O` [Compound 19, 8-(Benzylthio)-6-(ethylamino)-9-β-D-ribofuranosylpurine 3',5'-Cyclic Phosphate]: the activation at 1 µg/mL in assay [5] (1.0 μg/ml) turned out to be 9%. In [5] (3.1 μg/ml), the activation at 3.1 µg/mL was 11%. The activation at 10 µg/mL in assay [5] (10.0 μg/ml) amounted to 17%. For the same molecule, the activation at 31 µg/mL in assay [5] (31.0 μg/ml) amounted to 28%. In addition, the activation at 100 µg/mL in assay [5] (100 μg/ml) turned out to be 45%. For the same molecule, the activation at 310 µg/mL in assay [5] (310 μg/ml) turned out to be 88%. Also, the positive inotropic effect entry in assay [5] is recorded as “exhibit positive inotropic effect”. For the same molecule, the inhibition of phosphodiesterase entry with phosphodiesterase is on record as “inhibit phosphodiesterase markedly”.

Values taken from patent US4058659A, “6,8-Disubstituted purine derivatives of 9-β-D-ribofuranosyl 3',5'-cyclic phosphate” (ICN Pharmaceuticals, Inc., priority 1975, dated 1977).
